Patent US10273487B2, “Transfection vector for pathogenic amoebae and uses thereof” (priority 2017, dated 2019)
Values after ≈ are worked out from the molar mass of the structure shown. Like-named read-outs stand apart in the source and are kept apart here.

Experiments:
N. fowleri [1] = test: MTS viability assays in N. fowleri; parameters: IC50 Value / IC90 Value: unit not given beside the values; conditions: for IC95 Value / IC50 Value / IC90 Value: MTS viability assay, N. fowleri, Table 1, unit not given
N. fowleri [2] = test: Preliminary experiments on natural resistance of N. fowleri to selection marker
Source text: Five different selection markers were screened for their suitability to use in an N. fowleri transfection system. […] Hygromycin was used in subsequent studies as the selectable marker, partly due to its easy use in other eukaryotic transfection systems.

| Compound | IC95 Value (N. fowleri [1]) | IC50 (N. fowleri [1]; Naegleria fowleri, read-out: IC50 Value) | IC50 (N. fowleri [1]; Naegleria fowleri, read-out: IC50 values) | IC90 (N. fowleri [1]; Naegleria fowleri, read-out: IC90 Value) | IC50 Value (N. fowleri [1]) | IC90 Value (N. fowleri [1]) | resistance of N. fowleri to the selection marker (N. fowleri [2]) |
| --- | --- | --- | --- | --- | --- | --- | --- |
| COc1ccc(C[C@H](N)C(=O)N[C@H]2[C@@H](O)[C@H](n3cnc4c(N(C)C)ncnc43)O[C@@H]2CO)cc1 [puromycin] | 1.91 | 0.58 µg/mL (≈ 1.23 µM) | 0.6 µg/mL (≈ 1.27 µM) | 1.49 µg/mL (≈ 3.16 µM) |  |  |  |
| bleomycin | 2.10 |  |  |  | 0.49 | 1.62 |  |
| neomycin | 3078.4 |  |  |  | 681.1 | 2385.3 | natural resistance |
| nourseothricin | 218.7 |  |  |  | 26.5 | 165.4 |  |
